Assay results from ChEMBL document CHEMBL2074430, “Transient expression of oatp organic anion transporter in mammalian cells: identification of candidate substrates” (Am J Physiol, 1996).
One block for each compound: values may come before it.

How the values were obtained:
Format in all cases: functional, cell-based
Details in all cases: human
[1] = target: T1, Solute carrier organic anion transporter family member 1A1 (Rattus norvegicus, UniProt P46720); test: TP_TRANSPORTER: inhibition of BSP uptake (BSP: 1 uM, Aldosterone: 100 uM) in Oatp1-expressing HeLa cells
T1 sequence (P46720 whole entry): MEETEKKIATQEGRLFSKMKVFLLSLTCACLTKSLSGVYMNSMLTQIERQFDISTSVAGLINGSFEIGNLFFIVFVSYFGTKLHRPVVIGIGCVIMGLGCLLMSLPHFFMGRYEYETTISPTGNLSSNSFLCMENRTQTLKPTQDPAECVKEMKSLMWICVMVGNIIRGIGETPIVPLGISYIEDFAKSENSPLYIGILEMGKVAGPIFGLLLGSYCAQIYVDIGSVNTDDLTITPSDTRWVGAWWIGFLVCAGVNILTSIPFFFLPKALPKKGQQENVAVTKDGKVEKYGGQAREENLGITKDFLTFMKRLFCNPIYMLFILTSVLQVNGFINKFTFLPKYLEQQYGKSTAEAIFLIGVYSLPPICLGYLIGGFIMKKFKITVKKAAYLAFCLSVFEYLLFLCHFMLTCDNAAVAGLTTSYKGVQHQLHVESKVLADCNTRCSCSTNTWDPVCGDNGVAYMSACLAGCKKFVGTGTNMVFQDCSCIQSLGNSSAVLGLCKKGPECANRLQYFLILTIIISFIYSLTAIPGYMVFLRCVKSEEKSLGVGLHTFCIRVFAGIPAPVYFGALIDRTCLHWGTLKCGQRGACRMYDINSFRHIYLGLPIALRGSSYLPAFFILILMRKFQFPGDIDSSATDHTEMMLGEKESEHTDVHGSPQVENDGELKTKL

[2] = target: T1, Solute carrier organic anion transporter family member 1A1; test: TP_TRANSPORTER: uptake in Oatp1-expressing HeLa cells
[3] = target: T1, Solute carrier organic anion transporter family member 1A1; test: TP_TRANSPORTER: inhibition of BSP uptake (BSP: 1 uM, Corticosterone: 100 uM) in Oatp1-expressing HeLa cells
[4] = target: T1, Solute carrier organic anion transporter family member 1A1; test: TP_TRANSPORTER: inhibition of BSP uptake (BSP: 1 uM, Hydrocortisone: 100 uM) in Oatp1-expressing HeLa cells
[5] = target: T1, Solute carrier organic anion transporter family member 1A1; test: TP_TRANSPORTER: inhibition of BSP uptake (BSP: 1 uM, Spironolactone: 100 uM) in Oatp1-expressing HeLa cells

Compound: C[C@]12CCC(=O)C=C1CC[C@@H]1[C@@H]2[C@@H](O)C[C@]2(C=O)[C@@H](C(=O)CO)CC[C@@H]12 [ALDOSTERONE]
- Activity [1]: inhibitor [(at a rough estimate) 20 % of control]

- Activity [2]: is not a substrate [-]
Compound: Nc1ccc(C(=O)NCC(=O)O)cc1 [AMINOHIPPURIC ACID]

Compound: C[C@]12C[C@H](O)[C@H]3[C@@H](CCC4=CC(=O)CC[C@@]43C)[C@@H]1CC[C@@H]2C(=O)CO [CORTICOSTERONE]
- Activity [3]: inhibitor [(at a rough estimate) 15 % of control]

- Activity [2]: is not a substrate [-]
Compound: CCCCC[C@H](O)/C=C/[C@H]1[C@H](O)CC(=O)[C@@H]1C/C=C\CCCC(=O)O [DINOPROSTONE]

Compound: C[C@]12CCC(=O)C=C1CC[C@@H]1[C@@H]2[C@@H](O)C[C@@]2(C)[C@H]1CC[C@]2(O)C(=O)CO [HYDROCORTISONE]
- Activity [4]: inhibitor [(at a rough estimate) 30 % of control]

Compound: CC(=O)S[C@@H]1CC2=CC(=O)CC[C@]2(C)[C@H]2CC[C@@]3(C)[C@@H](CC[C@@]34CCC(=O)O4)[C@H]12 [SPIRONOLACTONE]
- Activity [5]: inhibitor [(at a rough estimate) 10 % of control]
